Results: patent publication US12624017B2, “Salt form of isoquinolinone type compound as rock inhibitor and preparation method therefor” (GUANGZHOU OCUSUN OPHTHALMIC BIOTECHNOLOGY CO., LTD., priority 2020, dated 2026)

Key:
[1] = Hygroscopicity research by dynamic vapor sorption (DVS); format: physicochemical; conditions: 25° C. and 80% RH
Protocol: Dynamic Vapor Sorption (DVS) Method
Instrument model: SMS DVS intrinsic dynamic vapor sorption instrument
A dynamic water sorption experiment consists of adsorption and desorption. It is generally believed that at a set relative humidity, the adsorption or desorption of the sample to moisture at this relative humidity is considered to have reached equilibrium when the sample weight reaches dm/dt≤0.01%.
Sample testing temperature: T=25° C.
Equilibrium time: dm/dt: 0.01%/min
Relative humidity variation range: 0%-95%-0%; RH (%)
Test humidity change at each step: 5%
The evaluation of hygroscopicity is classified as follows:
SMS DVS intrinsic dynamic vapor sorption instrument
10 to 15 mg of the crystal form B of the compound of formula (II) was put in a DVS sample tray for testing.

[2] = Solid stability research (crystal form stability on storage); format: physicochemical; conditions: 40° C./75% RH 6 months; 25° C./60% RH 12 months
Protocol: The crystal form B of the compound of formula (II) was placed at 40° C./75% RH (sealed with a double-layer LDPE bag and further heat-sealed with an aluminum foil bag) for 6 months, and placed at 25° C./60% RH (sealed with a double-layer LDPE bag and further heat-sealed with an aluminum foil bag) for 12 months, respectively. The crystal form was tested individually at each sampling point to determine the crystal form stability of the sample.

Question: With `Cc1ccc(C(=O)OCn2cc(C)c3c(S(=O)(=O)N4CC[C@H](N)C4)cccc3c2=O)c(C)c1` as the molecule, how does the Classification of hygroscopicity [1] read?
Answer: The Classification of hygroscopicity was “slightly hygroscopic”.

Question: What about the “ΔW, hygroscopic weight gain” value ([1]; DVS) of the same molecule?
Answer: Its value is 0.736%.

Question: And the “Stability in accelerated and long-term tests” value [2]?
Answer: Its value is “good stability”.
